Values of other authors, collected in patent US8198326B2, “Phenolic antiseptic compositions and methods of use” (3M Innovative Properties Company, priority 2004, dated 2012).

Test system: methicillin resistant staphylococcus aureus
Conditions: reaction of free iodine with the organic load

povidone-iodine
decrease of activity on addition of nasal secretions: 80-90%
